Data from patent publication US5340788A, “Diphenylsulfone derivatives and heat sensitive recording materials” (Nippon Soda Co., Ltd., priority 1990, dated 1994).

Tests used:
[1] = tested on: Salmonela strains (TA-100 and TA-1535) and E. coli (WP2uvrA); experiment: Mutagenic activity, Ames test; format: cell-based; conditions: for increase of recovery mutation colony: 128-5000 μg/plate, metabolic activation (S9) and inactivation, all strains; for mutagenicity (conclusion of Ames test): with and without metabolic activation
Procedure: (§1) Mutagenic activity of the compound No. 1 in the invention and 4,4'-diglycidyldiphenylsulfone was evaluated by Ames test for using Salmonela strains (TA-100 and TA-1535) and E. coli (WP2uvrA) under conditions of metabolic activation and metabolic inactivation. The metabolic activation system was consisted of supernatant of 9000 G in centrifugation from rat liver homogenate (S9) mixture which was induced by 5,6-benzoflavone or phenobar bital, and a coenzyme. Both test compounds were prepared at concentration of 50 mg/mL by using dimethylformamide. Then, they were successively diluted to prepare lower concentration solutions by the same solvent. The concentration of each test substance is adjusted to be 128, 320, 800, 2000 and 5000 μg/plate. The test mixture of the bacteria, each test substance and sodium phosphate buffer solution (S9 mixture under the metabolic activation condition) was incubated at 37° C. for 20 minutes. After the incubation the mixture was added by soft agar solution containing minimum nutrients, homogeneously inoculated on an agar plate and incubated at 37° C. for 65 hours. […] It was concluded from the results that the compound No 1. was not mutagenic, but 4,4'-diglycidyldiphenylsulfone was mutagen.

[2] = Deposited materials observed after incubation in Ames test; format: physicochemical; conditions: both conditions of metabolic activation and inactivation
Procedure: as §1

[3] = Stability of background to heat and humidity (heat sensitive recording paper, Macbeth Reflection Densitometer); conditions: reflection density, filter #106; for Stability of Background to heat and humidity, After exposing: after 50° C. under 80% humidity; for Stability of Background to heat and humidity, Before exposing: before 50° C., 80% humidity
Excerpt: (§2) Example 4 (Preparation of Heat Sensitive Recording Paper)
(§3) A compound in the invention (or a reference compound)
(§4) Each above mixture was sufficiently homogenized by sand grinder to prepare Liquid A, B or C. One weight part of Liquid A, 2 weight parts of Liquid B and 1 weight part of Liquid C. were mixed to prepare a dispersion liquid to tint. The liquid was coated on white paper by applying Wire Rod No. 12, then dried to manufacture the heat sensitive recording paper.
(§5) In the preparation of Liquid C in Example 4, instead of the compound in the invention, 4-glycidyloxy-4'-isoprpoxydiphenylsulfone was taken place, the other components were same as Example 4 and the heat sensitive recording paper was similarly prepared.
(§6) A part of the heat sensitive recording papers which were prepared according to the Example 4 and the Comparative examples were heated from both sides to develop color at 150° C. by dry-heating tester (Kishino Science machinery Co.). Then, after they were placed in Incubator Controlled Humidity and Temperature at 50° C. under 80% humidity and in Fademeter (Type FAL-5, Suga Tester Co.) exposing for 3 hours, the stability of backgrounds, of the color images and anti-photo stability were determined by Macbeth Reflection Densitometer (Type RD-514, Ratten #106).

[4] = Photostability of developed image (Fademeter, Macbeth Reflection Densitometer); conditions: reflection density, filter #106; for Photostability of developed image, After exposing: after Fademeter exposing for 3 hours; for Photostability of developed image, Before exposing: color developed at 150° C., before Fademeter
Excerpt: as §2, §3, §4, §5, §6

| SMILES | increase of recovery mutation colony [1] | mutagenicity (conclusion of Ames test) [1] | mutagenicity (conclusion of Ames test) ([1]; listed as 4,4'-diglycidyldiphenylsulfone) | concentration above which deposited materials were observed [2] | Stability of Background to heat and humidity, After exposing [3] | Stability of Background to heat and humidity, Before exposing [3] | Photostability of developed image, After exposing [4] | Photostability of developed image, Before exposing [4] | mutagenicity (conclusion of Ames test) ([1]; listed as compound No. 1) |
| --- | --- | --- | --- | --- | --- | --- | --- | --- | --- |
| O=S(=O)(c1ccc(OCC2CO2)cc1)c1ccc(OCC2CO2)cc1 (stereo not drawn) [4,4'-diglycidyloxydiphenylsulfone, reference compound] | increases of recovery mutation colony were in all strains | mutagenic | mutagen | 320-800 μg/plate |  |  |  |  |  |
| O=S(=O)(c1ccc(OCc2ccc(Cl)cc2)cc1)c1ccc(OCC2CO2)cc1 (stereo not drawn) [(2)] |  |  |  |  | 0.11 | 0.07 | 1.15 | 1.23 |  |
| CC1(COc2ccc(S(=O)(=O)c3ccc(OCc4ccccc4Cl)cc3)cc2)CO1 (stereo not drawn) [(3)] |  |  |  |  | 0.10 | 0.08 | 1.09 | 1.22 |  |
| CC1(COc2ccc(S(=O)(=O)c3ccc(OCc4ccc(Cl)cc4)cc3)cc2)CO1 (stereo not drawn) [(4)] |  |  |  |  | 0.09 | 0.07 | 1.14 | 1.23 |  |
| Cc1ccc(COc2ccc(S(=O)(=O)c3ccc(OCC4(C)CO4)cc3)cc2)cc1 (stereo not drawn) [(6)] |  |  |  |  | 0.12 | 0.09 | 1.16 | 1.22 |  |
| C=CCOc1ccc(S(=O)(=O)c2ccc(OCC3CO3)cc2)cc1 (stereo not drawn) [(7)] |  |  |  |  | 0.07 | 0.07 | 1.12 | 1.21 |  |
| CC(C)Oc1ccc(S(=O)(=O)c2ccc(OCC3CO3)cc2)cc1 (stereo not drawn) [compound 1, 4-glycidyloxy-4'-isoprpoxydiphenylsulfone, reference compound] |  |  |  |  | 0.17 | 0.07 | 1.00 | 1.19 |  |
| CC1(COc2ccc(S(=O)(=O)c3ccc(OCc4ccccc4)cc3)cc2)CO1 (stereo not drawn) [compound (1), 4-benzyloxy-4'-(2-methylglycidyloxy)diphenylsulfone] | No increase of recovery mutation colony was observed in any strain |  |  | > 800 μg/plate | 0.07 | 0.06 | 1.13 | 1.21 | not mutagenic |
| Cc1ccc(COc2ccc(S(=O)(=O)c3ccc(OCC4CO4)cc3)cc2)cc1 (stereo not drawn) [compound (5), 4-(4-methylbenzyloxy)-4'-glycidyloxydiphenylsulfone] |  |  |  |  | 0.10 | 0.08 | 1.12 | 1.20 |  |
